Laboratory results as given in PMC7550323 (Clinical Pharmacokinetics, 2020).
“And” between values parts separate entries of the source, which are not always exact repeats. Identical values can stand only once. Like-named read-outs stand apart in the source and are kept apart here.

Tests used:
[1] = type: in vivo, human
[2] = Hepatic impairment study, single-dose gilteritinib pharmacokinetics; type: in vivo, human; conditions: for AUC480, GLSM, Unbound / AUCinf, GLSM, Unbound / Cmax, GLSM, Unbound: single 10 mg dose, fasted, N = 8
[3] = CYP3A4 drug-drug interaction study in healthy subjects; type: in vivo, human; conditions: for AUCinf, GLSM ratio / AUClast, GLSM ratio / Cmax, GLSM ratio: 100 indicates no change
[4] = Effect of food study in healthy subjects; type: in vivo, human; conditions: single 40 mg dose
[5] = Population PK analysis; type: in vivo, human
[6] = type: in vivo, human; conditions: R/R AML; achievable at QD doses of 80 mg or greater
[7] = cited from earlier work
[8] = test system: FLT3; conditions: doses of ≥ 80 mg/day; cited from earlier work
[9] = test system: FLT3; conditions: cited from earlier work
[10] = test system: c-Kit; conditions: preclinical evaluations; cited from earlier work
[11] = test system: FLT3 receptors expressing the F691L gatekeeper mutation; conditions: cited from earlier work
[12] = test system: MV4-11 AML cells; conditions: mice xenografted with MV4-11 AML cells; cited from earlier work
[13] = for AUC / Cmax / Tmax / half-life: human, plasma, oral; for AUC / Cmax / Tmax: single dose (Day-2)
[14] = metabolite profiling after 14C-gilteritinib
[15] = single oral dose of 14C-gilteritinib
[16] = fluconazole + gilteritinib/gilteritinib alone
[17] = itraconazole + gilteritinib/gilteritinib alone
[18] = rifampicin + gilteritinib/gilteritinib alone
[19] = multiple dosing QD (Day 15), 20 mg, n = 3
[20] = multiple dosing QD (Day 15), 40 mg, n = 2
[21] = multiple dosing QD (Day 15), 40 mg, n = 12
[22] = multiple dosing QD (Day 15), 80 mg, n = 3
[23] = multiple dosing QD (Day 15), 80 mg, n = 20
[24] = multiple dosing QD (Day 15), 120 mg, n = 3
[25] = multiple dosing QD (Day 15), 120 mg, n = 61
[26] = multiple dosing QD (Day 15), 200 mg, n = 2
[27] = multiple dosing QD (Day 15), 200 mg, n = 79
[28] = multiple dosing QD (Day 15), 300 mg, n = 3
[29] = multiple dosing QD (Day 15), 300 mg, n = 15

SMILES: CCc1nc(C(N)=O)c(Nc2ccc(N3CCC(N4CCN(C)CC4)CC3)c(OC)c2)nc1NC1CCOCC1 [gilteritinib, Gilteritinib]
- average total blood-to-plasma ratios of total 14C-radioactivity ([1]; after [14C]-gilteritinib 120 mg single dose at steady state): 0.8514–1.361
- radioactive peak in feces, accounting for [1, 14]: 11.7–23.8%
- radioactive peak in urine, accounting for [1, 14]: 6.3–15.8%
- total administered dose recovered in feces [1, 15]: 64.5%
- total dose recovered in urine [1, 15]: 16.4%
- total radioactive dose recovered [1, 15]: 80.9%
- AUC480, GMR vs normal hepatic function, Total ([2]; mild hepatic impairment): 78.13%
- AUC480, GMR vs normal hepatic function, Unbound ([2]; mild hepatic impairment): 87.59%
- AUCinf, GMR vs normal hepatic function, Total ([2]; mild hepatic impairment): 78.88%
- AUCinf, GMR vs normal hepatic function, Unbound ([2]; mild hepatic impairment): 88.42%
- Cmax, GMR vs normal hepatic function, Total ([2]; mild hepatic impairment): 106.59%
- Cmax, GMR vs normal hepatic function, Unbound ([2]; mild hepatic impairment): 119.49%
- AUC480, GMR vs normal hepatic function, Total ([2]; moderate hepatic impairment): 60.55%
- AUC480, GMR vs normal hepatic function, Unbound ([2]; moderate hepatic impairment): 87.21%
- AUCinf, GMR vs normal hepatic function, Total ([2]; moderate hepatic impairment): 61.43%
- AUCinf, GMR vs normal hepatic function, Unbound ([2]; moderate hepatic impairment): 88.48%
- Cmax, GMR vs normal hepatic function, Total ([2]; moderate hepatic impairment): 81.73%
- Cmax, GMR vs normal hepatic function, Unbound ([2]; moderate hepatic impairment): 117.72%
- AUC480, GLSM, Unbound ([2]; mild hepatic impairment): 25.95 ng·h/mL
- AUCinf, GLSM, Unbound ([2]; mild hepatic impairment): 27.53 ng·h/mL
- Cmax, GLSM, Unbound ([2]; mild hepatic impairment): 0.5171 ng/mL
- AUC480, GLSM, Unbound ([2]; moderate hepatic impairment): 25.84 ng·h/mL
- AUCinf, GLSM, Unbound ([2]; moderate hepatic impairment): 27.54 ng·h/mL
- Cmax, GLSM, Unbound ([2]; moderate hepatic impairment): 0.5095 ng/mL
- AUC480, GLSM, Unbound ([2]; normal hepatic function): 29.62 ng·h/mL
- AUCinf, GLSM, Unbound ([2]; normal hepatic function): 31.13 ng·h/mL
- Cmax, GLSM, Unbound ([2]; normal hepatic function): 0.4328 ng/mL
- increase in systemic exposure of gilteritinib ([3]; coadministration of itraconazole (strong CYP3A4 inhibitor)): ~ 2.2 fold and 2.2 fold
- increase in gilteritinib systemic exposure ([3]; coadministration with fluconazole): ~ 1.43 fold
- decrease in gilteritinib systemic exposure ([3]; concomitant administration of rifampicin): ~ 70%
- AUCinf, GLSM ratio [3, 16]: 143.5%
- AUClast, GLSM ratio [3, 16]: 144.0%
- Cmax, GLSM ratio [3, 16]: 115.7%
- AUCinf, GLSM ratio [3, 17]: 221.4%
- AUClast, GLSM ratio [3, 17]: 213.5%
- Cmax, GLSM ratio [3, 17]: 119.8%
- AUCinf, GLSM ratio [3, 18]: 28.5%
- AUClast, GLSM ratio [3, 18]: 29.2%
- Cmax, GLSM ratio [3, 18]: 73.4%
- AUC72, GMR (fed/fasted) [4]: 91.0%
- AUCinf, GMR (fed/fasted) [4]: 93.8%
- AUClast, GMR (fed/fasted) [4]: 94.6%
- Cmax, GMR (fed/fasted) [4]: 74.0%
- half-life ([5]; human, plasma, oral): 113 h
- volume of distribution ([5]; in vivo): large volume of distribution
- steady-state Ctrough at which composite complete response occurred more commonly [6]: ≥ 100 ng/mL
- maximum tolerated dose ([7]; R/R AML, QD single agent): 300 mg/day
- median overall survival duration ([7]; doses of ≥ 80 mg/day): 31 weeks
- overall response rate ([7]; doses of ≥ 80 mg/day): 52%
- maximum FLT3 inhibition [8]: > 90%
- inhibition of FLT3 receptors with ITD and D835 mutations [9]: highly specific potent inhibition
- selectivity for FLT3 ([9]; preclinical evaluations): highly selective for FLT3
- activity against c-Kit [10]: weak activity
- activity against FLT3 receptors expressing the F691L gatekeeper mutation [11]: weak activity
- effect on tumor growth [12]: inhibited tumor growth and induced tumor regression
- dose proportionality of pharmacokinetics ([13]; 20 to 450 mg QD, R/R AML): dose-proportional pharmacokinetics
- time at which steady state is achieved, based on Ctrough ([13]; QD dosing, visual inspection of median Ctrough): ≤ 15 days
- AUC ([13]; 20 mg, AUC24, Mean (SD), n = 5): 302 ng·h/mL
- AUC ([13]; 20 mg, AUC24, Median (range), n = 5): 262 ng·h/mL
- Cmax ([13]; 20 mg, Mean (SD), n = 5): 28.1 ng/mL
- Cmax ([13]; 20 mg, Median (range), n = 5): 23.7 ng/mL
- Tmax ([13]; 20 mg, Median (range), n = 5): 2 h
- half-life ([13]; 20 mg, t½, Mean (SD), multiple dosing QD (Day 15), 20 mg, n = 3, calculated from Rac): 62.1 h
- half-life ([13]; 20 mg, t½, Median (range), multiple dosing QD (Day 15), 20 mg, n = 3, calculated from Rac): 54.5 h
- AUC ([13]; 40 mg, AUC24, Mean (SD), n = 3): 360 ng·h/mL
- AUC ([13]; 40 mg, AUC24, Median (range), n = 3): 315 ng·h/mL
- Cmax ([13]; 40 mg, Mean (SD), n = 3): 25 ng/mL
- Cmax ([13]; 40 mg, Median (range), n = 3): 17 ng/mL
- Tmax ([13]; 40 mg, Median (range), n = 3): 5.98 h
- half-life ([13]; 40 mg, t½, Mean (SD), multiple dosing QD (Day 15), 40 mg, n = 2, calculated from Rac): 152 h
- half-life ([13]; 40 mg, t½, Median (range), multiple dosing QD (Day 15), 40 mg, n = 2, calculated from Rac): 152 h
- AUC ([13]; 80 mg, AUC24, Mean (SD), n = 3): 1220 ng·h/mL
- AUC ([13]; 80 mg, AUC24, Median (range), n = 3): 995 ng·h/mL
- Cmax ([13]; 80 mg, Mean (SD), n = 3): 75.3 ng/mL
- Cmax ([13]; 80 mg, Median (range), n = 3): 71.5 ng/mL
- Tmax ([13]; 80 mg, Median (range), n = 3): 4 h
- half-life ([13]; 80 mg, t½, Mean (SD), multiple dosing QD (Day 15), 80 mg, n = 3, calculated from Rac): 86.1 h
- half-life ([13]; 80 mg, t½, Median (range), multiple dosing QD (Day 15), 80 mg, n = 3, calculated from Rac): 91 h
- AUC ([13]; 120 mg, AUC24, Mean (SD), n = 3): 2480 ng·h/mL
- AUC ([13]; 120 mg, AUC24, Median (range), n = 3): 1390 ng·h/mL
- Cmax ([13]; 120 mg, Mean (SD), n = 3): 137 ng/mL
- Cmax ([13]; 120 mg, Median (range), n = 3): 85.7 ng/mL
- Tmax ([13]; 120 mg, Median (range), n = 3): 2.1 h
- half-life ([13]; 120 mg, t½, Mean (SD), multiple dosing QD (Day 15), 120 mg, n = 3, calculated from Rac): 45.9 h
- half-life ([13]; 120 mg, t½, Median (range), multiple dosing QD (Day 15), 120 mg, n = 3, calculated from Rac): 44.9 h
- AUC ([13]; 200 mg, AUC24, Mean (SD), n = 3): 3020 ng·h/mL
- AUC ([13]; 200 mg, AUC24, Median (range), n = 3): 2540 ng·h/mL
- Cmax ([13]; 200 mg, Mean (SD), n = 3): 168 ng/mL
- Cmax ([13]; 200 mg, Median (range), n = 3): 149 ng/mL
- Tmax ([13]; 200 mg, Median (range), n = 3): 5.2 h
- half-life ([13]; 200 mg, t½, Mean (SD), multiple dosing QD (Day 15), 200 mg, n = 2, calculated from Rac): 142 h
- half-life ([13]; 200 mg, t½, Median (range), multiple dosing QD (Day 15), 200 mg, n = 2, calculated from Rac): 142 h
- AUC ([13]; 300 mg, AUC24, Mean (SD), n = 3): 4160 ng·h/mL
- AUC ([13]; 300 mg, AUC24, Median (range), n = 3): 2450 ng·h/mL
- Cmax ([13]; 300 mg, Mean (SD), n = 3): 204 ng/mL
- Cmax ([13]; 300 mg, Median (range), n = 3): 137 ng/mL
- Tmax ([13]; 300 mg, Median (range), n = 3): 6.1 h
- half-life ([13]; 300 mg, t½, Mean (SD), multiple dosing QD (Day 15), 300 mg, n = 3, calculated from Rac): 142 h
- half-life ([13]; 300 mg, t½, Median (range), multiple dosing QD (Day 15), 300 mg, n = 3, calculated from Rac): 159 h
- AUC ([13]; 450 mg, AUC24, Mean (SD), n = 2): 3320 ng·h/mL
- AUC ([13]; 450 mg, AUC24, Median (range), n = 2): 3320 ng·h/mL
- Cmax ([13]; 450 mg, Mean (SD), n = 3): 208 ng/mL
- Cmax ([13]; 450 mg, Median (range), n = 3): 216 ng/mL
- Tmax ([13]; 450 mg, Median (range), n = 3): 5.8 h
- half-life ([13]; estimated t1/2, across dose cohorts, multiple dosing): 45 to 159 h
- accumulation based on the accumulation index ([13]; multiple dosing QD): up to ten-fold accumulation
- Rac (accumulation ratio), Mean (SD) [13, 19]: 4.3 (1.069)
- Rac (accumulation ratio), Median (range) [13, 19]: 3.8 (3.5–5.5)
- Ctrough, Mean (SD) ([13]; multiple dosing QD (Day 15), 20 mg, n = 11): 43.5 (23.5) ng/mL
- Rac (accumulation ratio), Mean (SD) [13, 20]: 9.6 (7.8)
- Rac (accumulation ratio), Median (range) [13, 20]: 9.6 (4.2–15.1)
- Ctrough, Mean (SD) [13, 21]: 72.9 (40.1) ng/mL
- Ctrough, Median (range) [13, 21]: 66.6 (26.7–166) ng/mL
- Rac (accumulation ratio), Mean (SD) [13, 22]: 5.7 (1.4)
- Rac (accumulation ratio), Median (range) [13, 22]: 6.0 (4.1–6.97)
- Ctrough, Mean (SD) [13, 23]: 165 (88.0) ng/mL
- Ctrough, Median (range) [13, 23]: 110 (78.6–339) ng/mL
- Rac (accumulation ratio), Mean (SD) [13, 24]: 3.3 (1.2)
- Rac (accumulation ratio), Median (range) [13, 24]: 3.2 (2.2–4.4)
- Ctrough, Mean (SD) [13, 25]: 367 (253) ng/mL
- Ctrough, Median (range) [13, 25]: 292 (77.1–1173) ng/mL
- Rac (accumulation ratio), Mean (SD) [13, 26]: 9.0 (3.7)
- Rac (accumulation ratio), Median (range) [13, 26]: 9.0 (6.4–11.7)
- Ctrough, Mean (SD) [13, 27]: 816 (557) ng/mL
- Ctrough, Median (range) [13, 27]: 668 (90.5–2925) ng/mL
- Rac (accumulation ratio), Mean (SD) [13, 28]: 9.1 (3.3)
- Rac (accumulation ratio), Median (range) [13, 28]: 10.1 (5.4–11.7)
- Ctrough, Mean (SD) [13, 29]: 1242 (723) ng/mL
- Ctrough, Median (range) [13, 29]: 1085 (470–2391) ng/mL
- Ctrough, Mean (SD) ([13]; multiple dosing QD (Day 15), 450 mg, n = 1): 1170 ng/mL
